# Columns and labels:
# [1] = tested on: PQ-treated Neuro-2a cells; assay: ROS level in PQ-treated cells (H2DCFDA); type: cell-based, murine
# Experimental: (§1) The murine neuroblastoma cell line Neuro-2a was purchased from ATCC.
# (§2) Neuro-2a cells were cultured in DMEM medium containing 10% fetal bovine serum (Biolot, St. Petersburg, Russia) and 1% penicillin/streptomycin (Biolot, St. Petersburg, Russia). Cells were incubated at 37 °C in a humidified atmosphere containing 5% (v/v) CO2 [71].
# […] Then, 6-OHDA/PQ/rotenone were added to cell suspension to resulting concentration of 50 µM, 500 µM and 10 µM respectively for incubation during 1 h. Cells incubated without neurotoxins and compounds and with neurotoxins alone were used as positive and negative controls, respectively. The 20 µL of 2,7-dichlorodihydrofluorescein diacetate solution (H2DCFDA, Molecular Probes, Eugene, OR, USA) was added to each well (10 µM, final concentration) and the plate was incubated for an additional 10 min at 37 °C. The intensity of dichlorofluorescein fluorescence was measured with PHERAstar FS plate reader (BMG Labtech, Ortenberg, Germany) at λex = 485 nm and λem = 518 nm. The data were processed by MARS Data Analysis v. 3.01R2 (BMG Labtech, Germany). The results were presented as the percent of positive control data.
# [2] = MTT cytotoxicity assay; type: cell-based, murine; conditions: mouse, Neuro-2a neuroblastoma cells; Neuro-2a cells, MTT
# Experimental: as §1, §2
# The in vitro cytotoxicity of the individual substances was evaluated using an MTT (3-(4,5-dimethylthiazol-2-yl)-2,5-diphenyltetrazolium bromide) assay, which was performed according to the manufacturer’s instructions (Sigma-Aldrich, USA). Absorbance of the converted formazan was measured using a Multiskan FC plate photometer (Thermo Scientific, Waltham, MA, USA) at λ = 570 nm. The results were presented as percent of control data, and concentration of cell viability inhibition on 50% (IC50) was calculated.
# [3] = tested on: MCF-7, HepG-2, NCI-H460 and SF-268; parameters: method as in PMID 18444265, PMID 28481313, PMID 27128202; conditions: four tumor cell lines and some others; cited from earlier work
# [4] = tested on: rotenone-treated Neuro-2a cells; assay: ROS level in rotenone-treated cells (H2DCFDA); type: cell-based, murine
# Experimental: as §1, §2
# (§3) The cells (1 × 10^4 cells/well of a 96-well plate) were incubated with compound solutions (10 µM) during 1 h. Then, 6-OHDA/PQ/rotenone were added to cell suspension to resulting concentration of 50 µM, 500 µM and 10 µM respectively for incubation during 1 h. Cells incubated without neurotoxins and compounds and with neurotoxins alone were used as positive and negative controls, respectively. The 20 µL of 2,7-dichlorodihydrofluorescein diacetate solution (H2DCFDA, Molecular Probes, Eugene, OR, USA) was added to each well (10 µM, final concentration) and the plate was incubated for an additional 10 min at 37 °C. The intensity of dichlorofluorescein fluorescence was measured with PHERAstar FS plate reader (BMG Labtech, Ortenberg, Germany) at λex = 485 nm and λem = 518 nm. The data were processed by MARS Data Analysis v. 3.01R2 (BMG Labtech, Germany). The results were presented as the percent of positive control data.
# [5] = tested on: 6-OHDA-treated Neuro-2a cells; assay: ROS level in 6-OHDA-treated cells (H2DCFDA); type: cell-based, murine
# Experimental: as §1, §2, §3
# [6] = tested on: Escherichia coli and Bacillus subtilis; parameters: method as in doi:10.1007/s10600-016-1745-x; conditions: cited from earlier work
# [7] = parameters: method as in doi:10.1007/BF01922472, doi:10.1016/j.tet.2016.09.008; conditions: cited from earlier work
# [8] = parameters: method as in doi:10.1007/BF03175531; conditions: cited from earlier work
# [9] = DPPH radical scavenger assay; conditions: for EC50 / DPPH Radical Scavenging 100 µM % of MeOH: 30 min; for EC50: MeOH, read-out: DPPH Radical Scavenging EC50; for DPPH Radical Scavenging 100 µM % of MeOH: compound 100 µM, absorbance 520 nm
# Experimental: The DPPH radical scavenging activities of the compounds were tested as described.
# The compounds were dissolved in MeOH, and the solutions (120 µL) were dispensed into wells of a 96-well microplate. In all, 30 µL of the DPPH (Sigma-Aldrich, Steinheim, Germany) solution in MeOH (7.5 × 10^−3 M) was added to each well. The concentrations of the test compounds in the mixtures were 10 and 100 µM. The mixtures were shaken and left to stand for 30 min, and the absorbance of the resulting solutions was measured at 520 nm with a microplate reader MultiscanFC (ThermoScientific, Waltham, MA, USA). The concentration scavenging 50% of the DPPH radical (EC50) was calculated for each investigated compound.
# [10] = tested on: Nrf2-ARE pathway; parameters: method as in PMID 27450949; conditions: cited from earlier work
# [11] = tested on: Neuro-2a cells treated with 6-OHDA; assay: 6-OHDA-induced PD cell model, cell viability (MTT); type: cell-based, murine; conditions: compounds 6-12 at 1 µM; 6-OHDA 50 µM
# Experimental: as §1, §2
# (§4) The neuroblastoma Neuro-2a line cells (1 × 10^4 cells/well) were treated with the test compounds at concentrations of 1 and/or 10 µM for 1 h, and then the neurotoxins were added to the neuroblastoma cell suspensions. Rotenone (Sigma-Aldrich, USA) was used at the concentration of 10 µM. Paraquat (Sigma-Aldrich, USA) was used at 500 µM. 6-Hydroxydopamine (Sigma-Aldrich, USA) was used at 50 µM. Cells incubated without neurotoxins and the test compounds and cells incubated with neurotoxins only were used as positive and negative controls, respectively. After 24 h of incubation, the cell viabilities were measured using the MTT method. The results are presented as the percent of positive control data.
# [12] = tested on: PQ-treated Neuro-2a cells; assay: Paraquat-induced PD cell model, cell viability (MTT); type: cell-based, murine
# Experimental: as §1, §2, §4
# [13] = no exact data published; cited from earlier work
# [14] = tested on: rotenone-treated Neuro-2a cells; assay: Rotenone-induced PD cell model, cell viability (MTT); type: cell-based, murine
# Experimental: as §1, §2, §4
# [15] = compounds 1-5, compound 10 µM 1 h, PQ 500 µM 1 h
# [16] = compounds 1-5, compound 10 µM 1 h, rotenone 10 µM 1 h
# [17] = compounds 1-5, compound 10 µM 1 h, 6-OHDA 50 µM 1 h
structure (smiles),measurement,setting,value
"O=C1C[C@H](O)[C@@H](O)c2cc(O)cc(O)c21 [Compound 1, (3S,4S)-4-hydroxyscytalone]",influence on ROS level in PQ-treated cells,[1]; [15],decreased a ROS level
same,IC50,[2],> 100 µM
same,cytotoxicity against tumor cell lines,[3],no activity was shown
same,influence on ROS level in rotenone-treated cells,[4]; [16],decreased a ROS level
same,influence on ROS level in 6-OHDA-treated cells,[5]; [17],decreased a ROS level
same,antimicrobial activity,[6],weak antimicrobial activity
same,phytotoxic activity,[7],phytotoxic
same,antinematodal activity,[8],antinematodal agents
same,EC50,[9],> 100 µM
same,DPPH Radical Scavenging 100 µM % of MeOH,[9],83.4 ± 1.2 % of MeOH
"O=C1C[C@H](O)[C@@H](O)c2cccc(O)c21 [Compound 2, (3S,4S)-4-hydroxy-6-dehydroxyscytalone]",influence on ROS level in PQ-treated cells,[1]; [15],decreased a ROS level
same,IC50,[2],> 100 µM
same,influence on ROS level in rotenone-treated cells,[4]; [16],decreased a ROS level
same,influence on ROS level in 6-OHDA-treated cells,[5]; [17],decreased a ROS level
same,phytotoxic activity,[7],phytotoxic
same,antinematodal activity,[8],antinematodal agents
same,EC50,[9],> 100 µM
same,DPPH Radical Scavenging 100 µM % of MeOH,[9],84.8 ± 3.2 % of MeOH
"CC1CC(O)CC2(Cc3cc(O)cc(O)c3C(=O)O2)O1 (centres unmarked) [Compound 3, demethylcitreoviranol]",influence on ROS level in PQ-treated cells,[1]; [15],effective against ROS level enhancing
same,IC50,[2],> 100 µM
same,inducing of the Nrf2-ARE pathway,[10],weak inducing of the Nrf2-ARE pathway
same,influence on ROS level in rotenone-treated cells,[4]; [16],effective against ROS level enhancing
same,EC50,[9],> 100 µM
same,DPPH Radical Scavenging 100 µM % of MeOH,[9],91.2 ± 1.8 % of MeOH
"COc1c2c(c(OC)c(O)c1-c1c[nH]c3ccccc13)C1(O)c3ccccc3NC1O2 (centres unmarked) [Compound 6, 3-(1H-indol-3-yl)-1,4-dimethoxy-5a,6-dihydro-10bH-benzofuro [2,3-b]indole-2,10b-diol]",IC50,[2],> 100 µM
same,EC50,[9],> 100 µM
same,DPPH Radical Scavenging 100 µM % of MeOH,[9],67.3 ± 3.9 % of MeOH
"NCCc1cc(O)c(O)cc1O [Compound 6-OHDA, 6-hydroxydopamine, reference compound]",increase of intracellular ROS level by neurotoxin,"[5]; 6-OHDA 50 µM alone, 1 h",66%
"C=CC(C)(C)c1[nH]c2ccccc2c1C1=C(OC)C(=O)C(c2cn(C(C)(C)C=C)c3ccccc23)=C(OC)C1=O [Compound 7, Asterriquinone A3]",IC50,[2],> 100 µM
same,cytoprotective activity in 6-OHDA-induced PD cell model,[11],weak cytoprotective activity
same,EC50,[9],> 100 µM
same,DPPH Radical Scavenging 100 µM % of MeOH,[9],88.9 ± 1.6 % of MeOH
"C=CC(C)(C)c1[nH]c2ccccc2c1C1=C(OC)C(=O)C(c2c(C(C)(C)C=C)[nH]c3ccccc23)=C(OC)C1=O [Compound 8, asterriquinone B4]",IC50,[2],91.5 ± 1.87 µM
same,EC50,[9],> 100 µM
same,DPPH Radical Scavenging 100 µM % of MeOH,[9],89.5 ± 0.9 % of MeOH
"C=CC(C)(C)c1[nH]c2ccccc2c1C1=C(OC)C(=O)C(c2c[nH]c3ccccc23)=C(OC)C1=O [Compound 9, asterriquinone C1]",IC50,[2],42.3 ± 1.45 µM
same,EC50,[9],> 100 µM
same,DPPH Radical Scavenging 100 µM % of MeOH,[9],82.4 ± 1.7 % of MeOH
"COC1=C(c2c[nH]c3ccccc23)C(=O)C(OC)=C(c2c[nH]c3c(CC=C(C)C)cccc23)C1=O [Compound 10, asterriquinone C2]",IC50,[2],> 100 µM
same,EC50,[9],> 100 µM
same,DPPH Radical Scavenging 100 µM % of MeOH,[9],91.3 ± 1.1 % of MeOH
"COC1=C(c2c[nH]c3ccccc23)C(=O)C(OC)=C(c2c[nH]c3ccccc23)C1=O [Compound 11, asterriquinone D]",IC50,[2],> 100 µM
same,EC50,[9],> 100 µM
same,DPPH Radical Scavenging 100 µM % of MeOH,[9],85.6 ± 1.3 % of MeOH
"COc1cc(O)cc2c1C(=O)c1c(O)cc(C)cc1C2=O [Compound 12, questin]",influence on ROS level in PQ-treated cells,"[1]; compounds 6-12, 1 µM (method: 10 µM), PQ 500 µM",significant in vitro anti-ROS activity
same,cytoprotective activity in PQ-induced PD cell model,"[12]; compounds 6-12 at 1 µM, paraquat 500 µM",inactive
same,IC50,[2],> 100 µM
same,influence on ROS level in rotenone-treated cells,"[4]; compounds 6-12, 1 µM (method: 10 µM), rotenone 10 µM",significant in vitro anti-ROS activity
same,influence on ROS level in 6-OHDA-treated cells,"[5]; compounds 6-12, 1 µM (method: 10 µM), 6-OHDA 50 µM",significant in vitro anti-ROS activity
same,cytoprotective activity in 6-OHDA-induced PD cell model,[11],inactive
same,DPPH-radical scavenging activity,[13],DPPH-radical scavenging activity has been reported
same,cytoprotective activity in rotenone-induced PD cell model,"[14]; compounds 6-12 at 1 µM, rotenone 10 µM",moderate cytoprotective activity
same,EC50,[9],> 100 µM
same,radical scavenging activity in cell-free assay,"[9]; DPPH, up to 100 µM",did not show any significant DPPH radical scavenging
same,DPPH Radical Scavenging 100 µM % of MeOH,[9],87.7 ± 2.4 % of MeOH
"C[n+]1ccc(-c2cc[n+](C)cc2)cc1 [PQ, paraquat, reference compound]",increase of intracellular ROS level by neurotoxin,"[1]; PQ 500 µM alone, 1 h",48%
same,decrease of Neuro-2a cell viability by neurotoxin,"[12]; paraquat 500 µM alone, 24 h",44%
"C=C(C)[C@H]1Cc2c(ccc3c2O[C@@H]2COc4cc(OC)c(OC)cc4[C@@H]2C3=O)O1 [Rotenone, reference compound]",increase of intracellular ROS level by neurotoxin,"[4]; rotenone 10 µM alone, 1 h",79%
same,decrease of Neuro-2a cell viability by neurotoxin,"[14]; rotenone 10 µM alone, 24 h",48%
